Holding throughout (assay): inhibition of tumour cell growth, NCI panel, 48 h
Test [1] relates to MOLT-4 leukemia.
Test [2] relates to U251 CNS.
The test system of test [3] is OVCAR-4 ovarian.
The test system of test [4] is SF-295 CNS.
Test [5] concerns SK-MEL-28 melanoma.
Test [6] relates to RPMI-8226 leukemia.
For test [7], the system named is HCC-2998 colon.
Test [8] deals with 786-0 renal.
In test [9] the test system is K-562 leukemia.
The subject of test [10] is OVCAR-5 ovarian.

Each structure is given as a SMILES string.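 Method: 48-hour compound exposure of cells in 96-well plates, five concentrations, linear interpolation of endpoints. GI50: concentration for 50% inhibition of growth. TGI marks complete inhibition of growth.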

Turning to `O=C1Cc2c(-c3ccccc3)cc(-c3cccc(Cl)c3)nc2-c2ccccc2N1`, the TGI in test [1] is > 90.4 µM; in test [2] it was 3.12 µM; in test [3], 5.71 µM; in test [4], 28.6 µM; in test [5] it was 25.8 µM; in test [6] it was > 93 µM. Further, the TGI is 7.76 µM in [7], 2.42 µM in [8], > 40.3 µM in [9] and 30.3 µM in test [10]. Further, the GI50 in test [8] is 0.977 µM.
Consider `CC1(C)C(=O)/C(=C\c2ccco2)C[C@]2(C)[C@H]3CC=C4[C@@H]5C[C@](C)(C(=O)O)CC[C@]5(C)CC[C@@]4(C)[C@]3(C)CC[C@@H]12`, for which the GI50 in test [1] is 4.37 µM; in test [2], 7.92 µM; in test [3], 12.8 µM; in test [4] it was 7.06 µM; in test [5], 15.1 µM; in [6], 4.2 µM. The GI50 in test [7] is 11 µM; in test [8] it was 9.51 µM; in test [9], 5.17 µM; in test [10], 15.6 µM. For the same molecule, the TGI in test [1] was 26.7 µM; in test [2], 24.8 µM; in test [3], 27 µM; in test [4], 24.6 µM; in [5], 31.1 µM; in test [6], 47.9 µM. Further, the TGI in [7] came to 24.3 µM; in [8], 25 µM; in test [9], 93 µM; in test [10], 32.2 µM.
As to `CCCN(CCCCC(NC(C)=O)C(=O)NCc1ccccc1)C(=O)NC` (stereo unspecified), the TGI in test [1], in [2], in test [3], in test [4], in test [5] and in test [6] was > 100 µM throughout. Also, the TGI in test [7], in test [8], in test [9] and in test [10] was > 100 µM in each case.
For `CCc1cccc(C)c1NC(=O)CC1Sc2ccccc2NC1=O` (stereo unspecified), the TGI in test [1], in [2], in test [3], in [4], in [5] and in test [6] was > 100 µM in each case. The TGI is 81.2 µM in [7], > 100 µM in test [8], > 100 µM in test [9] and > 100 µM in test [10].
`CC(SC1=CC(=O)c2c(O)ccc(O)c2C1=O)C(=O)O` (stereo unspecified): the TGI in test [1] is 60.7 µM; in [2], > 60.1 µM; in test [3] it was 35 µM; in [4] it was > 100 µM; in [5], > 80.1 µM; in test [6] it was > 96.2 µM. Besides, the TGI in test [7] was > 100 µM; in test [8], 56.8 µM; in test [9] it was 40.7 µM; in test [10], > 100 µM.
As to `[Cl][Sn]([c]1ccccc1)[c]1ccccc1`, the GI50 is 2.91 µM in test [1]; 10.3 µM in test [2]; 15.2 µM in test [3]; 19.2 µM in test [4]; 1.58 µM in test [5]; 2.09 µM in test [6]. Besides, the GI50 in test [7] is 14.1 µM; in test [8], 3.79 µM; in [9], 2.14 µM; in [10], 13.6 µM. In addition, the TGI in test [1] was determined as 28.9 µM; in test [2], 23.2 µM; in test [3], 29.8 µM; in test [4], 35.2 µM; in test [5] it was 3.62 µM; in test [6], 6.14 µM. In addition, the TGI was 27.8 µM in test [7], 12.8 µM in [8], 7.31 µM in [9] and 27.3 µM in test [10].
Consider `CCc1ccc(C2=C(O)C(=O)C(c3ccc(CC)cc3)=C(O)C2=O)cc1`, for which the GI50 was 1.81 µM in test [1]; 2.26 µM in [2]; 2.18 µM in test [3]; 1.93 µM in [4]; 2.65 µM in test [5]; 1.81 µM in [6]. Moreover, the GI50 in test [7] was 2.09 µM; in [8], 1.57 µM; in test [9] it was 1.34 µM; in test [10], 1.61 µM. The TGI in [1] was found to be 4.15 µM; in [2] it was 10.1 µM; in test [3], 7.75 µM; in test [4], 6.7 µM; in [5], 8.89 µM; in test [6], 6.43 µM. Also, the TGI amounted to 5.75 µM in [7], 2.95 µM in test [8], 3.61 µM in [9] and 5.88 µM in test [10].
Turning to `COc1cc2ccc3c4cc(OC)c(OCc5ccccc5)cc4cnc3c2cc1OC`, the TGI in [1], in test [2], in test [3], in [4], in [5] and in test [6] was > 100 µM in each case. Also, the TGI in test [7], in [8], in test [9] and in [10] was > 100 µM in each case.
On to `Nc1ccc2c(c1)[O][Sn]([c]1ccccc1)([c]1ccccc1)[O]C2=O`, for which the GI50 in test [1] was 5.01 µM; in test [2], 8.6 µM; in [3] it was 12.9 µM; in test [4] it was 6.38 µM; in [5], 5.02 µM; in [6], 2.5 µM. Besides, the GI50 in [7] is 17.8 µM; in test [8], 3.79 µM; in [9], 2.56 µM; in test [10], 17.2 µM. The TGI in [1] worked out at 29.7 µM; in test [2], 16.3 µM; in test [3] it was 28.4 µM; in test [4], 14.5 µM; in test [5], 12.4 µM; in [6], 10.7 µM. Further, the TGI in test [7] came out at 33.2 µM; in [8] it was 7.95 µM; in [9], 15.2 µM; in test [10] it was 31.1 µM.
Take `CCCN(CCC)c1c([N+](=O)[O-])cc(S(N)(=O)=O)cc1[N+](=O)[O-]`: the TGI in test [1] was 45.4 µM; in test [2], 26.9 µM; in [3], 26.9 µM; in test [4] it was 32.3 µM; in [5], 36.3 µM; in test [6] it was 76.4 µM. Moreover, the TGI was 33.2 µM in [7], 30.4 µM in test [8], 35.7 µM in [9] and 37.9 µM in test [10].

For the origin of these results see PubChem BioAssay (NCI).
